We go through 5 compounds from patent US20120202690A1, “HERBICIDAL COMPOUNDS” (SYNGENTA LIMITED, priority 2009, published 2012).

Each structure is given as a SMILES string.

For data set [1], the system named is Solanum nigrum (SOLNI). The experiment in a line: Post-emergence biological efficacy, glasshouse, 500 or 1000 g/ha, evaluated after 13 days (100=total damage to plant; 0=no damage to plant). Particulars: Solanum nigrum, 312 h, read-out: Percentage damage caused to weed species, post-emergence, SOLNI; for pest or weed control at 1000 g/ha: rate 1,000 g/ha. Type of data set: in vivo. The method in brief:
(§1)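 Standard soil, potted from seed; post-emergence treatment; glasshouse 24/16° C. (day/night), 14 h light, 65% humidity; watering twice daily.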

Data set [2] has as its system Alopecurus myosuroides (ALOMY). The description is as above. As to conditions: Alopecurus myosuroides, 312 h, read-out: Percentage damage caused to weed species, post-emergence, ALOMY; for pest or weed control at 1000 g/ha: rate 1,000 g/ha. Type of data set: in vivo. The essentials:
as §1

Data set [3] concerns Ipomoea hederaceae (IPOHE). The data set is described as above. The data set is classed as in vivo. As to conditions: Ipomoea, 312 h, read-out: Percentage damage caused to weed species, post-emergence, IPOHE; for pest or weed control at 1000 g/ha: rate 1,000 g/ha. The method in brief: as §1
Data set [4] relates to Echinochloa crusgaffi (ECHCG). Described as above. As to conditions: Echinochloa, 312 h, read-out: Percentage damage caused to weed species, post-emergence, ECHCG; for pest or weed control at 1000 g/ha: rate 1,000 g/ha. The data set is classed as in vivo. The essentials: as §1
Data set [5] has as its system Amaranthus retroflexus (AMARE). Described as above. The data set is classed as in vivo. As to conditions: Amaranthus retroflexus, 312 h, read-out: Percentage damage caused to weed species, post-emergence, AMARE; for pest or weed control at 1000 g/ha: rate 1,000 g/ha. The method in brief:
as §1

Data set [6] relates to Setaria faberi (SETFA). The description is as above. The data set is classed as in vivo. Particulars: Setaria faberi, 312 h, read-out: Percentage damage caused to weed species, post-emergence, SETFA; for pest or weed control at 1000 g/ha: rate 1,000 g/ha. The essentials:
as §1

The subject of data set [7] is Solanum nigrum (SOLNI). The experiment in a line: Pre-emergence biological efficacy, glasshouse, 1000 g/ha, evaluated after 13 days (100=total damage to plant; 0=no damage to plant). The data set is classed as in vivo. Particulars: Solanum nigrum, 312 h, read-out: Percentage damage caused to weed species, pre-emergence, SOLNI; for pest or weed control at 1000 g/ha: rate 1,000 g/ha. The essentials: (§2)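 Pot-sown in standard soil; glasshouse 24/16° C. (day/night), 14 h light, 65% humidity; watered twice daily.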

Data set [8] has as its system Alopecurus myosuroides (ALOMY). The description is as above. Type of data set: in vivo. Particulars: Alopecurus myosuroides, 312 h, read-out: Percentage damage caused to weed species, pre-emergence, ALOMY; for pest or weed control at 1000 g/ha: rate 1,000 g/ha. The essentials: as §2
The subject of data set [9] is Echinochloa crus-galli (ECHCG). Described as above. The data set is classed as in vivo. Particulars: Echinochloa crus-galli, 312 h, read-out: Percentage damage caused to weed species, pre-emergence, ECHCG; for pest or weed control at 1000 g/ha: rate 1,000 g/ha. The method in brief: as §2
The subject of data set [10] is Ipomoea hederaceae (IPOHE). The data set is described as above. The data set is classed as in vivo. Particulars: Ipomoea, 312 h, read-out: Percentage damage caused to weed species, pre-emergence, IPOHE; for pest or weed control at 1000 g/ha: rate 1,000 g/ha. The method in brief: as §2
The subject of data set [11] is Amaranthus retroflexus (AMARE). Described as above. The data set is classed as in vivo. As to conditions: Amaranthus retroflexus, 312 h, read-out: Percentage damage caused to weed species, pre-emergence, AMARE; for pest or weed control at 1000 g/ha: rate 1,000 g/ha. The essentials:
as §2

Data set [12] concerns Setaria faberi (SETFA). Described as above. Type of data set: in vivo. Particulars: Setaria faberi, 312 h, read-out: Percentage damage caused to weed species, pre-emergence, SETFA; for pest or weed control at 1000 g/ha: rate 1,000 g/ha. The essentials: as §2

The compound `COC(=O)c1nc(-c2ccc(Cl)c(F)c2)nc2c1n(Cc1ccccc1)c(=O)c(=O)n2Cc1ccccc1` [Compound 95-160, 2-(4-chloro-3-fluorophenyl)-5,8-dibenzyl-6,7-dioxo-4-methoxycarbonyl-5,6,7,8-tetrahydropteridine] yielded a melting point of 211 °C. For the same compound, the pest or weed control at 250 g/ha in the data set with Solanum nigrum (SOLNI) [1] (rate 250 g/ha) was determined as 30%. Further, the pest or weed control at 250 g/ha in data set [2] (rate 250 g/ha) stood at 10%. The pest or weed control at 250 g/ha in data set [3] (rate 250 g/ha) was 20%. The pest or weed control at 250 g/ha in data set [4] (rate 250 g/ha) amounted to 10%. Besides, the pest or weed control at 250 g/ha in data set [5] (rate 250 g/ha) was 20%. Moreover, the pest or weed control at 250 g/ha with Setaria faberi (SETFA) [6] (rate 250 g/ha) turned out to be 40%. For the same compound, in the data set with Solanum nigrum (SOLNI) [7] (rate 250 g/ha), the pest or weed control at 250 g/ha worked out at 0%. Further, the pest or weed control at 250 g/ha in data set [8] (rate 250 g/ha) was found to be 0%. Further, the pest or weed control at 250 g/ha in data set [9] (rate 250 g/ha) is 0%. In data set [10] (rate 250 g/ha), the pest or weed control at 250 g/ha amounted to 0%. For the same compound, the pest or weed control at 250 g/ha in data set [11] (rate 250 g/ha) is 0%. Further, in the data set with Setaria faberi (SETFA) [12] (rate 250 g/ha), the pest or weed control at 250 g/ha worked out at 0%.

In turn, `COC(=O)c1nc(-c2ccc(Cl)c(OC)c2F)nc2ncccc12` [Compound 123-50, 2-(4-chloro-2-fluoro-3-methoxyphenyl)-4-methoxycarbonyl-pyrido[2,3-d]pyrimidine] returned a melting point of 160 to 162 °C. Besides, in the data set on Solanum nigrum (SOLNI) [1], the pest or weed control at 1000 g/ha came out at 20%. In [2], the pest or weed control at 1000 g/ha was 0%. Further, the pest or weed control at 1000 g/ha in data set [3] was found to be 10%. Besides, the pest or weed control at 1000 g/ha in data set [4] came to 10%. Besides, in data set [5], the pest or weed control at 1000 g/ha was 0%. Further, the pest or weed control at 1000 g/ha in the data set on Setaria faberi (SETFA) [6] amounted to 10%. The pest or weed control at 1000 g/ha in the data set on Solanum nigrum (SOLNI) [7] was found to be 0%. Besides, the pest or weed control at 1000 g/ha in data set [8] is 0%. In data set [9], the pest or weed control at 1000 g/ha was found to be 0%. The pest or weed control at 1000 g/ha in [10] was 0%. For the same compound, the pest or weed control at 1000 g/ha in [11] is 0%. The pest or weed control at 1000 g/ha in the data set with Setaria faberi (SETFA) [12] was determined as 0%.

For the compound `CCOCn1cc(C)c2c(C(=O)OC)nc(-c3ccc(Cl)c(OC)c3F)nc21` [Compound 3-64, 2-(4-chloro-2-fluoro-3-methoxyphenyl)-7-ethoxymethyl-4-methoxycarbonyl-5-methyl-7H-pyrrolo[2,3-d]pyrimidine], the melting point fell in the range of 107 to 108 °C. Besides, the pest or weed control at 1000 g/ha in the data set on Solanum nigrum (SOLNI) [1] worked out at 40%. Further, the pest or weed control at 1000 g/ha in data set [2] came to 0%. Also, the pest or weed control at 1000 g/ha in data set [3] worked out at 70%. The pest or weed control at 1000 g/ha in data set [4] turned out to be 0%. For the same compound, the pest or weed control at 1000 g/ha in data set [5] came out at 10%. Moreover, in the data set on Setaria faberi (SETFA) [6], the pest or weed control at 1000 g/ha worked out at 0%. Further, in the data set on Solanum nigrum (SOLNI) [7], the pest or weed control at 1000 g/ha was 0%. The pest or weed control at 1000 g/ha in data set [8] amounted to 0%. Besides, the pest or weed control at 1000 g/ha in data set [9] turned out to be 0%. In addition, in data set [10], the pest or weed control at 1000 g/ha was determined as 0%. For the same compound, the pest or weed control at 1000 g/ha in data set [11] amounted to 0%. Besides, in the data set on Setaria faberi (SETFA) [12], the pest or weed control at 1000 g/ha was 0%.

Take `COC(=O)c1nc(-c2ccc(Cl)c(OC)c2F)nc2c1N(Cc1ccccc1)CCN2Cc1ccccc1` [Compound 95-168, 2-(4-Chloro-2-fluoro-3-methoxyphenyl)-5,8-dibenzyl-4-methoxy-carbonyl-5,6,7,8-tetrahydropteridine]: the melting point turned out to be 146 °C. Also, the pest or weed control at 1000 g/ha in the data set with Solanum nigrum (SOLNI) [1] was found to be 10%. Also, the pest or weed control at 1000 g/ha in data set [2] is 0%. Further, in data set [3], the pest or weed control at 1000 g/ha stood at 10%. Moreover, in [4], the pest or weed control at 1000 g/ha was 0%. The pest or weed control at 1000 g/ha in data set [5] was 0%. Further, in the data set with Setaria faberi (SETFA) [6], the pest or weed control at 1000 g/ha stood at 0%. In the data set with Solanum nigrum (SOLNI) [7], the pest or weed control at 1000 g/ha was determined as 0%. Also, the pest or weed control at 1000 g/ha in [8] is 0%. In data set [9], the pest or weed control at 1000 g/ha is 0%. In addition, the pest or weed control at 1000 g/ha in [10] was 0%. Besides, the pest or weed control at 1000 g/ha in data set [11] was found to be 0%. Besides, the pest or weed control at 1000 g/ha in the data set with Setaria faberi (SETFA) [12] amounted to 0%.

The compound `COC(=O)c1nc(-c2ccc(Cl)c(OC)c2F)nc2c1N(C(C)C)CCN2C(C)C` [Compound 93-166, 2-(4-Chloro-2-fluoro-3-methoxyphenyl)-5,8-diisopropyl-4-methoxy-carbonyl-5,6,7,8-tetrahydropteridine] displayed a melting point of 135 °C. Moreover, in the data set on Solanum nigrum (SOLNI) [1], the pest or weed control at 1000 g/ha was determined as 10%. Moreover, the pest or weed control at 1000 g/ha in [2] was found to be 20%. In addition, the pest or weed control at 1000 g/ha in data set [3] is 10%. Moreover, the pest or weed control at 1000 g/ha in data set [4] was 10%. For the same compound, the pest or weed control at 1000 g/ha in data set [5] was found to be 0%. In the data set with Setaria faberi (SETFA) [6], the pest or weed control at 1000 g/ha stood at 30%. The pest or weed control at 1000 g/ha in the data set with Solanum nigrum (SOLNI) [7] came out at 0%. The pest or weed control at 1000 g/ha in [8] was determined as 0%. Also, the pest or weed control at 1000 g/ha in [9] amounted to 0%. Further, the pest or weed control at 1000 g/ha in [10] was 0%. Besides, the pest or weed control at 1000 g/ha in [11] came out at 0%. In addition, the pest or weed control at 1000 g/ha in the data set on Setaria faberi (SETFA) [12] stood at 0%.

In general, melting point refers to the temperature of the solid-liquid transition.
